Consider 35 compounds from patent US7968556B2, “Heteroaryl compounds, compositions thereof, and methods of treatment therewith” (Signal Pharmaceuticals, LLC, priority 2006, dated 2011).

Structures are written as SMILES.

`COc1ccccc1-n1c(=O)[nH]c2c(C(N)=O)nc(Nc3cccc(O)c3)nc21` [Compound 45, 2-(3-Hydroxyphenylamino)-9-(2-methoxyphenyl)-8-oxo-8,9-dihydro-7H-purine-6-carboxamide] came in with a melting point of 190 to 191 °C.

Consider `COc1ccccc1-n1c(=O)[nH]c2c(C(N)=O)nc(Nc3ccc(O)cc3)nc21` [Compound 46, 2-(4-Hydroxyphenylamino)-9-(2-methoxyphenyl)-8-oxo-8,9-dihydro-7H-purine-6-carboxamide], for which the melting point was in the range of 223 to 224 °C.

The compound `NC(=O)c1nc(-c2cccnc2)nc2c1[nH]c(=O)n2[C@H]1CC[C@H](O)CC1` [Compound 48, 9-(trans-4-Hydroxycyclohexyl)-8-oxo-2-(pyridin-3-yl)-8,9-dihydro-7H-purine-6-carboxamide] gave a melting point of 331 to 333 °C.

Take `NC(=O)c1nc(-c2cccc(O)c2)nc2c1[nH]c(=O)n2[C@H]1CC[C@H](O)CC1` [Compound 49, 9-(trans-4-Hydroxycyclohexyl)-2-(3-hydroxyphenyl)-8-oxo-8,9-dihydro-7H-purine-6-carboxamide]: the melting point lay in the range of 373 to 375 °C.

Regarding `COc1ccccc1-n1cnc2c(C(N)=O)nc(Nc3cccc(O)c3)nc21` [Compound 51, 2-(3-Hydroxyphenylamino)-9-(2-methoxyphenyl)-9H-purine-6-carboxamide], the melting point was 155 to 157 °C.

`COc1ccccc1-n1c(=O)[nH]c2c(C(N)=O)nc(-c3cccc(C#N)c3)nc21` [Compound 55, 2-(3-Cyanophenyl)-9-(2-methoxyphenyl)-8-oxo-8,9-dihydro-7H-purine-6-carboxamide] yielded a melting point of 316 to 318 °C.

Regarding `COc1ccccc1-n1c(=O)[nH]c2c(C(N)=O)nc(Nc3ccccc3O)nc21` [Compound 56, 2-(2-Hydroxyphenylamino)-9-(2-methoxyphenyl)-8-oxo-8,9-dihydro-7H-purine-6-carboxamide], the melting point fell in the range of 314 to 315 °C.

For the compound `COc1ccc(-n2c(=O)[nH]c3c(C(N)=O)nc(-c4cccc(O)c4)nc32)c(C)c1` [Compound 57, 2-(3-Hydroxyphenyl)-9-(4-methoxy-2-methylphenyl)-8-oxo-8,9-dihydro-7H-purine-6-carboxamide], the melting point was in the range of 355 to 357 °C.

`NC(=O)c1nc(-c2cccc(O)c2)nc2c1[nH]c(=O)n2-c1ccccc1C(F)(F)F` [Compound 58, 2-(3-Hydroxyphenyl)-8-oxo-9-(2-(trifluoromethyl)phenyl)-8,9-dihydro-7H-purine-6-carboxamide] displayed a melting point of 363 to 365 °C.

With `COc1ccccc1-n1c(=O)[nH]c2c(C(N)=O)nc(-c3ccc(C#N)cc3)nc21` [Compound 59, 2-(4-Cyano-phenyl)-9-(2-methoxy-phenyl)-8-oxo-8,9-dihydro-7H-purine-6-carboxamide], the melting point lay in the range of 335 to 338 °C.

The compound `COC(=O)c1cccc(-c2nc(C(N)=O)c3[nH]c(=O)n(-c4ccccc4OC)c3n2)c1` [Compound 61, Methyl 3-(6-carbamoyl-9-(2-methoxyphenyl)-8-oxo-8,9-dihydro-7H-purin-2-yl)benzoate] returned a melting point of 265 to 266 °C.

`COc1ccccc1-n1c(=O)[nH]c2c(C(N)=O)nc(-c3cccc(C(=O)O)c3)nc21` [Compound 62, 3-(6-Carbamoyl-9-(2-methoxyphenyl)-8-oxo-8,9-dihydro-7H-purin-2-yl)benzoic acid] gave a melting point of 348 to 350 °C.

On to `COc1ccccc1-n1c(=O)[nH]c2c(C(N)=O)nc(-c3ccc(C(N)=O)cc3)nc21` [Compound 65, 2-(4-Carbamoylphenyl)-9-(2-methoxyphenyl)-8-oxo-8,9-dihydro-7H-purine-6-carboxamide], for which the melting point is above 350 °C.

On to `COc1ccccc1-n1c(=O)[nH]c2c(C(N)=O)nc(-c3cccc(C(N)=O)c3)nc21` [Compound 68, 2-(3-Carbamoylphenyl)-9-(2-methoxyphenyl)-8-oxo-8,9-dihydro-7H-purine-6-carbox amide], for which the melting point was 338 to 339 °C.

In turn, `COc1ccccc1-n1cnc2c(C(N)=O)nc(-c3ccccc3O)nc21` [Compound 70, 2-(2-Hydroxyphenyl)-9-(2-methoxyphenyl)purine-6-carboxamide] came in with a melting point of 278 to 280 °C.

`COc1ccccc1-n1c(=O)[nH]c2c(C(N)=O)nc(-c3ccncc3)nc21` [Compound 75, 9-(2-Methoxyphenyl)-8-oxo-2-(pyridin-4-yl)-8,9-dihydro-7H-purine-6-carboxamide] came in with a melting point of 318 to 320 °C.

Turning to `COc1ccccc1-n1c(=O)[nH]c2c(C(N)=O)nc(-c3ccc4nc[nH]c4c3)nc21` [Compound 91, 2-(1H-Benzo[d]imidazol-6-yl)-9-(2-methoxyphenyl)-8-oxo-8,9-dihydro-7H-purine-6-carboxamide], the melting point stood at 306 °C.

As for `NC(=O)c1nc(-c2ccc(O)nc2)nc2c1[nH]c(=O)n2-c1ccccc1C(F)(F)F` [Compound 100, 2-(6-Hydroxypyridin-3-yl)-8-oxo-9-(2-(trifluoromethyl)phenyl)-8,9-dihydro-7H-purine-6-carboxamide], the melting point is 348 to 352 °C (dec.).

Compound `NC(=O)c1nc(-c2cncc(Cl)c2)nc2c1[nH]c(=O)n2-c1ccccc1C(F)(F)F` [Compound 103, 2-(5-Chloropyridin-3-yl)-8-oxo-9-(2-(trifluoromethyl)phenyl)-8,9-dihydro-7H-purine-6-carboxamide] came in with a melting point of 230 to 232 °C.

`COc1ccccc1-n1c(=O)[nH]c2c(C(N)=O)nc(N[C@@H]3CCNC3)nc21` [Compound 105, (R)-9-(2-Methoxyphenyl)-8-oxo-2-(pyrrolidin-3-ylamino)-8,9-dihydro-7H-purine-6-carboxamide]: the melting point is above 400 °C.

Compound `COc1ccccc1-n1c(=O)[nH]c2c(C(N)=O)nc(N[C@H]3CCNC3)nc21` [Compound 106, (S)-9-(2-Methoxyphenyl)-8-oxo-2-(pyrrolidin-3-ylamino)-8,9-dihydro-7H-purine-6-carboxamide] returned a melting point above 400 °C.

`COc1ccccc1-n1c(=O)[nH]c2c(C(N)=O)nc(N[C@H]3CC[C@H](O)CC3)nc21` [Compound 108, 2-(trans-4-Hydroxycyclohexylamino)-9-(2-methoxyphenyl)-8-oxo-8,9-dihydro-7H-purine-6-carboxamide] showed a melting point of 165 to 167 °C.

Regarding `NC(=O)c1nc(-c2cnccc2Cl)nc2c1[nH]c(=O)n2-c1ccccc1C(F)(F)F` [Compound 109, 2-(4-Chloropyridin-3-yl)-8-oxo-9-(2-(trifluoromethyl)phenyl)-8,9-dihydro-7H-purine-6-carboxamide], the melting point is 244 to 248 °C (dec.).

Consider `COc1ccccc1-n1c(=O)[nH]c2c(C(N)=O)nc(N[C@H]3CC[C@@H](O)CC3)nc21` [Compound 110, 2-(cis-4-Hydroxycyclohexylamino)-9-(2-methoxyphenyl)-8-oxo-8,9-dihydro-7H-purine-6-carboxamide], for which the melting point is 295 to 297 °C.

`COc1ccccc1-n1c(=O)[nH]c2c(C(N)=O)nc(Nc3ccc(Cn4ccnc4)cc3)nc21` [Compound 111, 2-(4-((1H-Imidazol-1-yl)methyl)phenylamino)-9-(2-methoxyphenyl)-8-oxo-8,9-dihydro-7H-purine-6-carboxamide] returned a melting point of 165 to 170 °C.

Regarding `COc1ccccc1-n1c(=O)[nH]c2c(C(N)=O)nc(NC[C@H]3CCCN3)nc21` [Compound 113, (R)-9-(2-Methoxyphenyl)-8-oxo-2-(pyrrolidin-2-ylmethylamino)-8,9-dihydro-7H-purine-6-carboxamide], the melting point was 155 to 157 °C.

`COc1ccccc1-n1c(=O)[nH]c2c(C(N)=O)nc(NC[C@@H]3CCCN3)nc21` [Compound 114, (S)-9-(2-Methoxyphenyl)-8-oxo-2-(pyrrolidin-2-ylmethylamino)-8,9-dihydro-7H-purine-6-carboxamide]: the melting point lay within 160 to 165 °C.

As to `COc1ccccc1-n1c(=O)[nH]c2c(C(N)=O)nc(NCCO)nc21` [Compound 116, 2-(2-Hydroxyethylamino)-9-(2-methoxyphenyl)-8-oxo-8,9-dihydro-7H-purine-6-carboxamide], the melting point was 157 to 160 °C.

Turning to `COc1ccccc1-n1c(=O)[nH]c2c(C(N)=O)nc(-c3ccc4nc(C(F)(F)F)[nH]c4c3)nc21` [Compound 117, 9-(2-Methoxyphenyl)-8-oxo-2-(2-(trifluoromethyl)-1H-benzo[d]imidazol-6-yl)-8,9-dihydro-7H-purine-6-carboxamide], the melting point was 220 to 222 °C.

In turn, `NC(=O)c1nc(-c2cccc(O)c2)nc2c1[nH]c(=O)n2-c1ccccc1-c1ccccc1` [Compound 119, 9-(Biphenyl-2-yl)-2-(3-hydroxyphenyl)-8-oxo-8,9-dihydro-7H-purine-6-carboxamide] showed a melting point of 293 to 296 °C.

As for `CC(C)c1ccccc1-n1c(=O)[nH]c2c(C(N)=O)nc(-c3ccc(-c4nc[nH]n4)cc3)nc21` [Compound 121, 2-(4-(1H-1,2,4-Triazol-3-yl)phenyl)-9-(2-isopropylphenyl)-8-oxo-8,9-dihydro-7H-purine-6-carboxamide], the melting point was determined as 368 °C.

Turning to `COc1ccccc1-n1c(=O)[nH]c2c(C(N)=O)nc(-c3ccc4nc(C)[nH]c4c3)nc21` [Compound 122, 9-(2-Methoxyphenyl)-2-(2-methyl-1H-benzo[d]imidazol-6-yl)-8-oxo-8,9-dihydro-7H-purine-6-carboxamide], the melting point was 270 °C.

`COc1ccccc1-n1c(=O)[nH]c2c(C(N)=O)nc(Nc3cccc(CO)c3)nc21` [Compound 123, 2-(3-(Hydroxymethyl)phenylamino)-9-(2-methoxyphenyl)-8-oxo-8,9-dihydro-7H-purine-6-carboxamide]: the melting point is 237 to 239 °C.

In turn, `COc1ccccc1-n1c(=O)[nH]c2c(C(N)=O)nc(Nc3ccccc3CO)nc21` [Compound 124, 2-(2-(Hydroxymethyl)phenylamino)-9-(2-methoxyphenyl)-8-oxo-8,9-dihydro-7H-purine-6-carboxamide] registered a melting point of 159 to 162 °C.

`CC(C)(C)c1ccccc1-n1c(=O)[nH]c2c(C(N)=O)nc(-c3cccc(O)c3)nc21` [Compound 125, 9-(2-tert-Butylphenyl)-2-(3-hydroxyphenyl)-8-oxo-8,9-dihydro-7H-purine-6-carboxamide] came in with a melting point of 294 to 297 °C.
